Measurements published in patent US10300065B2, “Method of treating or prevention of atherothrombotic events in patients with history of myocardial infarction” (ASTRAZENECA AB, priority 2015, dated 2019).

Legend:
platelets = assay: VerifyNow P2Y12 assay (platelet reactivity, PRU), platelet function substudy; type: cell-based, human; conditions: for VerifyNow % inhibition Post dose / VerifyNow PRU Post dose: 2 h post dose; for VerifyNow % inhibition Post dose / VerifyNow PRU Post dose / VerifyNow % inhibition Pre dose / VerifyNow PRU Pre dose: mean (SD)
Description: The pharmacokinetics (PK) and pharmacodynamics of the 60 mg bid dose had not previously been studied. […] 180 patients who had received >4 weeks of study medication had blood sampling in the morning pre-maintenance dose and again 2 h post-dose. All patients were receiving aspirin. […] Well-known VerifyNow® P2Y12 assay and light transmittance aggregometry (LTA; ADP 20 uM) were performed. Groups were compared using Kruskal-Wallis test with significance attached to P<0.01 to allow for multiple group comparisons.

[1] = test system: patients with acute coronary syndrome; conditions: cited from earlier work
[2] = cited from earlier work

SMILES: CCCSc1nc(N[C@@H]2C[C@H]2c2ccc(F)c(F)c2)c2nnn([C@@H]3C[C@H](OCCO)[C@@H](O)[C@H]3O)c2n1 [Ticagrelor, (1S,2S,3R,5S)-3-[7-{[(1R,2S)-2-(3,4-difluorophenyl)cyclopropyl]amino}-5-(propylthio)-3H-[1,2,3]-triazolo[4,5-d]pyrimidin-3-yl]-5-(2-hydroxyethoxy)cyclopentane-1,2-diol]
- High platelet reactivity assessed by VerifyNow (PRU >208) (platelets; 60 mg, post dose): absent
- High platelet reactivity assessed by VerifyNow (PRU >208), patients (platelets; 60 mg, pre-dose): 3.5%
- VerifyNow % inhibition Post dose (platelets; ticagrelor 60 mg bid): 90 (13) %
- VerifyNow PRU Post dose (platelets; ticagrelor 60 mg bid): 29 (39) PRU
- VerifyNow % inhibition Pre dose (platelets; ticagrelor 60 mg bid): 78 (20) %
- VerifyNow PRU Pre dose (platelets; ticagrelor 60 mg bid): 59 (63) PRU
- VerifyNow % inhibition Post dose (platelets; ticagrelor 90 mg bid): 92 (8) %
- VerifyNow PRU Post dose (platelets; ticagrelor 90 mg bid): 20 (19) PRU
- VerifyNow % inhibition Pre dose (platelets; ticagrelor 90 mg bid): 83 (14) %
- VerifyNow PRU Pre dose (platelets; ticagrelor 90 mg bid): 47 (43) PRU
- major adverse cardiovascular events including cardiovascular death compared with clopidogrel 75 mg once daily ([1]; 90 mg twice daily added to aspirin for up to 1 year, acute coronary syndrome): reduced
- effect on pulmonary function ([1]; PLATO substudy, 199 subjects, after one month or after at least 6 months of chronic treatment): no indication of an adverse effect on pulmonary function
- reports of gout ([1]; PLATO, each treatment group): 0.6%
- serum uric acid level increase from baseline ([1]; PLATO, ticagrelor 90 mg bid): approximately 0.6 mg/dL
- increase in AUC ([2]; high-fat meal): 21%
- mean absolute bioavailability ([2]; human, in vivo): about 36%
- steady state volume of distribution ([2]; human, in vivo): 88 L
- median tmax ([2]; in patients after administration of ticagrelor): 1.5 h
